Experimental data taken from publication PMC10458360, “Assembling a Cinnamyl Pharmacophore in the C3-Position of Substituted Isatins via Microwave-Assisted Synthesis: Development of a New Class of Monoamine Oxidase-B Inhibitors for the Treatment of Parkinson’s Disease” (Molecules, 2023).

Assays:
MAO-B [1] = details: cited from earlier work
MAO-A = target: T1, MAO-A (Homo sapiens, UniProt P21397); assay: Inhibition of MAO-A (kynuramine, continuous absorbance assay); details: for remaining activity at 10 µM: read-out: Residual Activity at 10 µM (%) MAO-A
T1 sequence (P21397 1-527): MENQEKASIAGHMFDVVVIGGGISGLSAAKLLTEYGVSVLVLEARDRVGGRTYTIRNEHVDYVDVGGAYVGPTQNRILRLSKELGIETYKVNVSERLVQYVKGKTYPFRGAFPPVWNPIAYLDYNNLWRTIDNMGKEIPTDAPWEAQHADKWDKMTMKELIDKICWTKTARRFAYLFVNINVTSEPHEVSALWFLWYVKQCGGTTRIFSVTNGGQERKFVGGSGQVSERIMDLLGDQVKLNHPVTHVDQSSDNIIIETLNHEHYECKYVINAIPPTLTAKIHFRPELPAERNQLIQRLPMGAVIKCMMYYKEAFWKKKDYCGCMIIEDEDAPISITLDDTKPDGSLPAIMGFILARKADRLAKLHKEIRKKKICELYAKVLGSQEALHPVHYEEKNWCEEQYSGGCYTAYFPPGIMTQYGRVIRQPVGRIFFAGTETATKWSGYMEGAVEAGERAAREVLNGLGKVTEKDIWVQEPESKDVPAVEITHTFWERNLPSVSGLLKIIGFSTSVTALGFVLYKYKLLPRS

MAO-B [2] = target: T2, MAO-B (Homo sapiens, UniProt P27338); assay: biochemical; details: 0.3 mM benzylamine; for IC50: IC50 (µM) MAO-B, limit 40 µM; for remaining activity at 10 µM: read-out: Residual Activity at 10 µM (%) MAO-B, 10 µM compound
T2 sequence (P27338 1-520): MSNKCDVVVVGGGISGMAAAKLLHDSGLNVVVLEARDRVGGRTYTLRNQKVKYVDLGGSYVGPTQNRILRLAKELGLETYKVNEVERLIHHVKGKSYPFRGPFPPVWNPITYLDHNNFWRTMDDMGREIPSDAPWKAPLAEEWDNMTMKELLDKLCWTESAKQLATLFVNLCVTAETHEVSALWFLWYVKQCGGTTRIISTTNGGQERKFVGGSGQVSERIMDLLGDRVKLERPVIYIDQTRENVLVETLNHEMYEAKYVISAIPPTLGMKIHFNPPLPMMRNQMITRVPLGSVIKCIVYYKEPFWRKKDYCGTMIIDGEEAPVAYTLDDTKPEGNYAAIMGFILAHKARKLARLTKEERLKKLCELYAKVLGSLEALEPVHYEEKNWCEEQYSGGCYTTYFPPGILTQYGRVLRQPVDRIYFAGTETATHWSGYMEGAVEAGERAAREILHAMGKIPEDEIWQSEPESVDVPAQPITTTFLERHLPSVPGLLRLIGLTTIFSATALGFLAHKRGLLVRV

MAO-B [3] = target: T2, MAO-B; details: for SI (selectivity index): IC50 for MAO-A/IC50 for MAO-B
MAO-B [4] = target: T2, MAO-B; assay: Reversibility of MAO-B inhibition by dialysis; type: biochemical; details: for Residual activity, dialyzed (AD): dialyzed 6 h, two buffer changes
SH-SY5Y cells = assay: Neuroprotection on rotenone-induced SH-SY5Y cells by MTT assay; type: cell-based
MAO-B [5] = target: T2, MAO-B; assay: MAO-B enzyme kinetics (Lineweaver-Burk and secondary plot); type: biochemical
MAO = system: MAO; parameters: method as in PMID 27374845; details: cited from earlier work
[6] = ~2.0 times IC50, preincubation 30 min

| SMILES | IC50 (MAO-A) [µM] | remaining activity at 10 µM (MAO-A) [%] | IC50 (MAO-B [2]) [µM] | remaining activity at 10 µM (MAO-B [2]) [%] | also measured |
| --- | --- | --- | --- | --- | --- |
| O=C1Nc2ccc(OCc3ccc(Cl)c(Cl)c3)cc2C1=O [A3] |  |  |  |  | IC50 (MAO-B [1]): 0.003 µM |
| O=C1Nc2ccc(Br)cc2C1=O [Compound 1f] |  |  |  |  | IC50 (MAO-B [1]): 0.125 µM |
| C#CCN1C(=O)/C(=N/NC(=O)c2ccc3c(c2)OCO3)c2ccccc21 [Compound 3] |  |  |  |  | IC50 (MAO-B [1]): 0.034 µM |
| O=C(CN1CCc2cc(OCc3ccccc3)ccc21)N1CCN(CCO)CC1 [Compound 14] |  |  |  |  | IC50 (MAO-B [1]): 8.65 µM |
| O=C1Nc2ccccc2C1=NN=CC=Cc1ccccc1 [IHC1] | > 40 | 94.5 ± 2.1 | > 40 | 89.3 ± 3 |  |
| O=C1Nc2ccc(Br)cc2C1=NN=CC=Cc1ccccc1 [IHC2] | > 40 | 92.37 ± 0.52 | 16.9 ± 0.397 | 61.4 ± 3.42 | SI (selectivity index) (MAO-B [3]): >2.36 |
| O=C1Nc2ccc(F)cc2/C1=N/N=CC=Cc1ccccc1 [IHC3] | > 40 | 76.9 ± 1.55 | 1.67 |  | Reversibility of MAO-B inhibition (MAO-B [4]; dialysis): reversible MAO-B inhibitor; Residual activity, dialyzed (AD) (MAO-B [4]; [6]): 72.05%; Residual activity, undialyzed (AU) (MAO-B [4]; ~2.0 times IC50, preincubation 30 min, undialyzed): 32.87%; Cell viability trend (SH-SY5Y cells; 25 µg/mL IHC3, rotenone-induced cells, MTT): viability decreased; viability at 12.5 µg/mL (SH-SY5Y cells; Homo sapiens, SH-SY5Y, 12.5 µg/mL IHC3, rotenone-induced cells, MTT, 24 h, read-out: Cell viability (maximum)): 89.7%; Cell death caused by rotenone (SH-SY5Y cells; SH-SY5Y neuroblastoma cells): greatly decreased the cell death; Type of MAO-B inhibition (MAO-B [5]; Lineweaver-Burk plot): competitive MAO-B inhibitor; Ki (MAO-B [5]; secondary plot, benzylamine substrate): 0.51 ± 0.15 µM; SI (selectivity index) (MAO-B [3]): >23.92; Times higher MAO-B inhibition than IHMC2 (MAO-B [3]; ratio of IC50 values): 15.07 times; Times higher MAO-B inhibition than IHNC2 (MAO-B [3]; ratio of IC50 values): 13.15 times |
| O=C1Nc2ccc(Cl)cc2C1=NN=CC=Cc1ccccc1 [IHC4] | > 40 | 86.7 ± 1.78 | 27.5 ± 1.15 | 73.9 ± 8.87 | SI (selectivity index) (MAO-B [3]): >1.46 |
| COc1ccc2c(c1)C(=NN=CC=Cc1ccccc1)C(=O)N2 [IHC5] | > 40 | 82.3 ± 1.8 | > 40 | 75.8 ± 6.17 |  |
| Cc1ccc2c(c1)C(=NN=CC=Cc1ccccc1)C(=O)N2 [IHC6] | > 40 | 98.1 ± 1.55 | > 40 | 79.4 ± 3.25 |  |
| COc1ccc(C=CC=NN=C2C(=O)Nc3ccccc32)cc1 [IHMC1] | > 40 | 89.9 ± 1.3 | > 40 | 96.89 ± 0.95 |  |
| COc1ccc(C=CC=NN=C2C(=O)Nc3ccc(Br)cc32)cc1 [IHMC2] | > 40 | 86.63 ± 0.52 | 25.19 ± 0.147 | 78.1 ± 1.12 | SI (selectivity index) (MAO-B [3]): >1.59 |
| COc1ccc(C=CC=NN=C2C(=O)Nc3ccc(F)cc32)cc1 [IHMC3] | > 40 | 85.5 ± 6.42 | > 40 | 81.3 ± 4.61 |  |
| COc1ccc(C=CC=NN=C2C(=O)Nc3ccc(Cl)cc32)cc1 [IHMC4] | > 40 | 81.46 ± 0.77 | > 40 | 76.5 ± 3.27 |  |
| COc1ccc(C=CC=NN=C2C(=O)Nc3ccc(OC)cc32)cc1 [IHMC5] | > 40 | 84.48 ± 0.73 | > 40 | 85.6 ± 4.27 |  |
| COc1ccc(C=CC=NN=C2C(=O)Nc3ccc(C)cc32)cc1 [IHMC6] | > 40 | 89.8 ± 2.55 | > 40 | 91.8 ± 3.48 |  |
| O=C1Nc2ccccc2C1=NN=CC=Cc1ccc([N+](=O)[O-])cc1 [IHNC1] | > 40 | 88.7 ± 2.4 | > 40 | 96.9 ± 3.36 |  |
| O=C1Nc2ccc(Br)cc2C1=NN=CC=Cc1ccc([N+](=O)[O-])cc1 [IHNC2] | > 40 | 88.5 ± 0.71 | 22 ± 0.354 | 71.2 ± 1.99 | SI (selectivity index) (MAO-B [3]): >1.82 |
| O=C1Nc2ccc(F)cc2C1=NN=CC=Cc1ccc([N+](=O)[O-])cc1 [IHNC3] | > 40 | 80.4 ± 0.57 | > 40 | 78.9 ± 3.35 |  |
| O=C1Nc2ccc(Cl)cc2C1=NN=CC=Cc1ccc([N+](=O)[O-])cc1 [IHNC4] | > 40 | 82.3 ± 0.99 | 26.5 ± 0.6 | 74.5 ± 4.63 | SI (selectivity index) (MAO-B [3]): >1.51 |
| COc1ccc2c(c1)C(=NN=CC=Cc1ccc([N+](=O)[O-])cc1)C(=O)N2 [IHNC5] | > 40 | 88.6 ± 1.98 | > 40 | 82 ± 1.05 |  |
| Cc1ccc2c(c1)C(=NN=CC=Cc1ccc([N+](=O)[O-])cc1)C(=O)N2 [IHNC6] | > 40 | 87.2 ± 1.13 | > 40 | 81.1 ± 6.4 |  |
| C[C@H](NCc1ccc(OCc2cccc(F)c2)cc1)C(N)=O [Safinamide, reference compound] |  |  |  |  | Residual activity, dialyzed (AD) (MAO-B [4]; [6]): 85.86% |
| O=C1Nc2ccccc2C1=O [isatin, 1H-indole-2,3-dione] |  |  |  |  | IC50 (MAO): ~3 µM |
